# Experimental data taken from patent publication US8623855B2, “Azetidinone compounds and medical use thereof” (Zhejiang Hisun Pharmaceutical Co., Ltd., priority 2009, dated 2014).
# Read-outs that look alike come from different tables or passages of the source.
# Experiments:
# normal guinea pig = assay: Effect on blood lipid level of normal guinea pigs; assay type: in vivo; conditions: for HDL after administration / LDL after administration / TC after administration / TG after administration: Table 13
# [1] = test system: hypercholesterolemia golden hamster model; assay: In vivo pharmacodynamic screening in hypercholesterolemia model of golden hamster (plasma TC and LDL-C); conditions: for LDL-C after administration / TC after administration / LDL after administration: 1 week, plasma; for reduction of plasma TC and LDL-C levels (in words): significant statistical difference; for effect of lowering cholesterol (screening result in words): in vivo pharmacodynamic screening test, Ezetimibe as positive control; for efficacy compared with the positive control (in words): positive control Ezetimibe
# Method: 1. Establishment of Hypercholesterolemia Model of Golden Hamster:
# The animals were subjected to acclimation feeding for 1 week with free feeding and drinking under a lighting condition of 10 h/14 h. On Day 8, the animals were raised with high fat feed (consisting of 0.5% cholesterol, 20% palm oil, 79.5% basal feed) for 1 week. Then, each animal was anesthetized by ether. After weighing, 0.5 ml blood was obtained from orbital vein, anticoagulated with heparin and centrifuged at 5000 rpm for 10 min. The plasma was collected and the levels of plasma TC (total cholesterol) and LDL-C (low density lipoprotein cholesterol) were determined by automatic biochemical analyzer. Animals with plasma TC of 9-15 mmol/L were selected as model animals (refer to the following reference for the method of animal modeling: Burrier, R. E., Smith, A. A., Mcgregor, D. G, Hoos, L. M., Zilli, D. L., Davis, H. R. The effect of acyl CoA: cholesterol acyltransferase inhibition on the uptake, esterification and secretion of cholesterol by the hamster small intestine. J. Pharm. Exp. Ther., 1995, 272, 156-163).
# The animals were grouped according to TC and LDL-C levels and weight with 6 animals per group. Ezetimibe was used as positive control. The animals were intragastrically administered at a volume of 5 ml/kg for 1 week. Each animal was anesthetized by ether. After weighing, 0.5 ml blood was taken from orbital vein, anticoagulated with heparin, and centrifuged at 5000 rpm for 10 min. The plasma was collected and plasma TC (total cholesterol) and LDL-C (low density lipoprotein cholesterol) levels were determined by automatic biochemical analyzer to evaluate the efficacy of the compounds.
# [2] = Mesocricetus auratus, po, 168 h, Table 2, read-out: Reducing LDL-C %
# [3] = Mesocricetus auratus, po, 168 h, Table 2, read-out: Reducing TC %
# [4] = Mesocricetus auratus, po, 168 h, Table 4, 1 mg/kg, read-out: Reducing TC %
# [5] = Mesocricetus auratus, po, 168 h, Table 10, 1 mg/kg, read-out: Reducing LDL-C %
# [6] = Mesocricetus auratus, po, 168 h, Table 10, 1 mg/kg, read-out: Reducing TC %
# [7] = Table 1, baseline of group dosed 2 mg/kg
# [8] = Table 11, baseline of group dosed 1 mg/kg
# [9] = Table 1, 0.4 mg/kg intragastric
# [10] = Table 1, baseline of group dosed 0.4 mg/kg
# [11] = Table 1, baseline of group dosed 10 mg/kg
# [12] = golden hamster hypercholesterolemic model
# [13] = Table 11, 10 mg/kg intragastric
# [14] = Table 11, baseline of group dosed 10 mg/kg
smiles,measurement,setting,value
"O=C1[C@H](CC[C@H](O)c2ccc(F)cc2)[C@@H](c2ccc(O)cc2)N1c1ccc(F)cc1 [Ezetimibe, reference compound]",HDL after administration,normal guinea pig; 2.5 mg/kg,0.41 mmol/L
same,LDL after administration,normal guinea pig; 2.5 mg/kg,0.99 mmol/L
same,TC after administration,normal guinea pig; 2.5 mg/kg,1.14 ± 0.24 mmol/L
same,TG after administration,normal guinea pig; 2.5 mg/kg,0.41 ± 0.12 mmol/L
same,inhibition in vivo at 2 mg/kg,[1]; [2],77.6%
same,inhibition in vivo at 2 mg/kg,[1]; [3],57.4%
same,inhibition in vivo at 1 mg/kg,[1]; [4],58.8%
same,inhibition in vivo at 1 mg/kg,"[1]; Mesocricetus auratus, po, 168 h, Table 6, 1 mg/kg, read-out: Reducing LDL-C %",76%
same,inhibition in vivo at 1 mg/kg,"[1]; Mesocricetus auratus, po, 168 h, Table 6, 1 mg/kg, read-out: Reducing TC %",58.3%
same,inhibition in vivo at 1 mg/kg,"[1]; Mesocricetus auratus, po, 168 h, Table 8, 1 mg/kg, read-out: Reducing LDL-C %",64.2%
same,inhibition in vivo at 1 mg/kg,"[1]; Mesocricetus auratus, po, 168 h, Table 8, 1 mg/kg, read-out: Reducing TC %",48.1%
same,inhibition in vivo at 1 mg/kg,[1]; [5],68.2%
same,inhibition in vivo at 1 mg/kg,[1]; [6],64.4%
same,inhibition in vivo at 1 mg/kg,"[1]; Mesocricetus auratus, po, 168 h, Table 12, 1 mg/kg, read-out: Reducing LDL-C %",60.8%
same,inhibition in vivo at 1 mg/kg,"[1]; Mesocricetus auratus, po, 168 h, Table 12, 1 mg/kg, read-out: Reducing TC %",58.5%
same,LDL-C after administration,"[1]; Table 1, 2 mg/kg intragastric",0.57 ± 0.34 mmol/L
same,TC after administration,"[1]; Table 1, 2 mg/kg intragastric",4.21 ± 0.68 mmol/L
same,LDL-C before administration,[1]; [7],2.55 ± 0.96 mmol/L
same,LDL after administration,"[1]; Table 3, 1 mg/kg intragastric",1.16 ± 0.44 mmol/L
same,TC after administration,"[1]; Table 3, 1 mg/kg intragastric",5.62 ± 0.48 mmol/L
same,Reducing LDL %,"[1]; Table 4, 1 mg/kg",36.0%
same,LDL after administration,"[1]; Table 5, 1 mg/kg intragastric",1.3 mmol/L
same,TC after administration,"[1]; Table 5, 1 mg/kg intragastric",4.51 mmol/L
same,LDL after administration,"[1]; Table 7, 1 mg/kg intragastric",1.62 mmol/L
same,TC after administration,"[1]; Table 7, 1 mg/kg intragastric",5.58 mmol/L
same,LDL after administration,"[1]; Table 9, 1 mg/kg intragastric",1.0 mmol/L
same,TC after administration,"[1]; Table 9, 1 mg/kg intragastric",5.45 mmol/L
same,LDL-C after administration,"[1]; Table 11, 1 mg/kg intragastric",1.13
same,TC after administration,"[1]; Table 11, 1 mg/kg intragastric",5.29
same,LDL-C before administration,[1]; [8],2.88 ± 0.79
same,TC before administration,[1]; [8],12.74 ± 1.44
"O=C1[C@H](C/C=C(/CO)c2ccc(F)cc2)[C@@H](c2ccc(O)cc2)N1c1ccc(F)cc1 [I-1(E), (3R,4S)-1-(4-fluorophenyl)-3-[(E)-3-(4-fluorophenyl)-4-hydroxy-but-2-enyl]-4-(4-hydroxyphenyl)azetidin-2-one]",inhibition in vivo at 0.4 mg/kg,[1]; [2],-16.4%
same,inhibition in vivo at 0.4 mg/kg,[1]; [3],-26.1%
same,inhibition in vivo at 2 mg/kg,[1]; [2],0%
same,inhibition in vivo at 2 mg/kg,[1]; [3],-20.9%
same,inhibition in vivo at 10 mg/kg,[1]; [2],30.7%
same,inhibition in vivo at 10 mg/kg,[1]; [3],11.7%
same,LDL-C after administration,[1]; [9],2.84 ± 0.59 mmol/L
same,TC after administration,[1]; [9],12.42 ± 1.4 mmol/L
same,LDL-C after administration,"[1]; Table 1, 2 mg/kg intragastric",2.21 ± 0.37 mmol/L
same,TC after administration,"[1]; Table 1, 2 mg/kg intragastric",11.19 ± 0.69 mmol/L
same,LDL-C after administration,"[1]; Table 1, 10 mg/kg intragastric",1.74 ± 0.62 mmol/L
same,TC after administration,"[1]; Table 1, 10 mg/kg intragastric",8.7 ± 0.93 mmol/L
same,LDL-C before administration,[1]; [10],2.44 ± 0.46 mmol/L
same,LDL-C before administration,[1]; [7],2.21 ± 0.47 mmol/L
same,LDL-C before administration,[1]; [11],2.51 ± 0.91 mmol/L
same,reduction of plasma TC and LDL-C relative to the amount reduced by Ezetimibe and I-1 (Z),[1]; [12],less than 50%
same,reduction of plasma TC and LDL-C levels (in words),[1]; [12],can also lower plasma TC and LDL-C levels
same,effect of lowering cholesterol (screening result in words),[1],certain effect on cholesterol-lowering
O=C1[C@H](C/C=C(\CO)c2ccc(F)cc2)[C@@H](c2ccc(Oc3ccccc3)cc2)N1c1ccc(F)cc1 [I-3(Z)],inhibition in vivo at 10 mg/kg,"[1]; Mesocricetus auratus, po, 168 h, Table 12, read-out: Reducing LDL-C %",66.3%
same,inhibition in vivo at 10 mg/kg,"[1]; Mesocricetus auratus, po, 168 h, Table 12, read-out: Reducing TC %",50.8%
same,LDL-C after administration,[1]; [13],1.14
same,TC after administration,[1]; [13],6.23
same,LDL-C before administration,[1]; [14],3.38 ± 0.84
same,TC before administration,[1]; [14],12.67 ± 1.35
same,reduction of plasma TC and LDL-C levels (in words),[1]; [12],can significantly reduce the plasma TC and LDL-C levels
same,effect of lowering cholesterol (screening result in words),[1],have the effect of lowering cholesterol
same,efficacy compared with the positive control (in words),[1],more similar to the positive control
"CC(=O)OC/C(=C\C[C@H]1C(=O)N(c2ccc(F)cc2)[C@@H]1c1ccc(OC(C)=O)cc1)c1ccc(F)cc1 [I-11(Z), (3R,4S)-3-[(Z)-4-acetoxy-3-(4-fluorophenyl)-but-2-enyl]-4-(4-acetoxyphenyl)-1-(4-fluorophenyl)azetidin-2-one]",inhibition in vivo at 1 mg/kg,[1]; [5],47.7%
same,inhibition in vivo at 1 mg/kg,[1]; [6],48%
same,inhibition in vivo at 10 mg/kg,"[1]; Mesocricetus auratus, po, 168 h, Table 10, read-out: Reducing LDL-C %",59.2%
same,inhibition in vivo at 10 mg/kg,"[1]; Mesocricetus auratus, po, 168 h, Table 10, read-out: Reducing TC %",60.2%
same,LDL after administration,"[1]; Table 9, 1 mg/kg intragastric",1.65 mmol/L
same,TC after administration,"[1]; Table 9, 1 mg/kg intragastric",7.98 mmol/L
same,LDL after administration,"[1]; Table 9, 10 mg/kg intragastric",1.28 mmol/L
same,TC after administration,"[1]; Table 9, 10 mg/kg intragastric",6.11 mmol/L
same,reduction of plasma TC and LDL-C levels (in words),[1]; [12],can significantly reduce the plasma TC and LDL-C levels
same,effect of lowering cholesterol (screening result in words),[1],have the effect of lowering cholesterol
"O=C1[C@H](C/C=C(\CO)c2ccc(F)cc2)[C@@H](c2ccc(O)cc2)N1c1ccc(F)cc1 [I-1(Z), (3R,4S)-1-(4-fluorophenyl)-3-[(Z)-3-(4-fluorophenyl)-4-hydroxy-but-2-enyl]-4-(4-hydroxyphenyl)azetidin-2-one]",HDL after administration,normal guinea pig; 0.1 mg/kg,0.47 mmol/L
same,LDL after administration,normal guinea pig; 0.1 mg/kg,1.73 mmol/L
same,TC after administration,normal guinea pig; 0.1 mg/kg,1.77 ± 0.43 mmol/L
same,TG after administration,normal guinea pig; 0.1 mg/kg,0.38 ± 0.05 mmol/L
same,HDL after administration,normal guinea pig; 0.5 mg/kg,0.4 mmol/L
same,LDL after administration,normal guinea pig; 0.5 mg/kg,1.75 mmol/L
same,TC after administration,normal guinea pig; 0.5 mg/kg,1.9 ± 0.2 mmol/L
same,TG after administration,normal guinea pig; 0.5 mg/kg,0.44 ± 0.06 mmol/L
same,HDL after administration,normal guinea pig; 2.5 mg/kg,0.47 mmol/L
same,LDL after administration,normal guinea pig; 2.5 mg/kg,0.86 mmol/L
same,TC after administration,normal guinea pig; 2.5 mg/kg,1.17 ± 0.25 mmol/L
same,TG after administration,normal guinea pig; 2.5 mg/kg,0.31 ± 0.12 mmol/L
same,reduction of plasma TC and LDL-C levels (in words),normal guinea pig; normal guinea pigs,can significantly reduce the plasma TC and LDL-C levels
same,effect compared with positive control Ezetimibe at the same dose (in words),"normal guinea pig; normal guinea pigs, same dose",the same as that of the positive control
same,inhibition in vivo at 0.4 mg/kg,[1]; [2],32.7%
same,inhibition in vivo at 0.4 mg/kg,[1]; [3],33.7%
same,inhibition in vivo at 2 mg/kg,[1]; [2],72.4%
same,inhibition in vivo at 2 mg/kg,[1]; [3],49.7%
same,inhibition in vivo at 10 mg/kg,[1]; [2],83.1%
same,inhibition in vivo at 10 mg/kg,[1]; [3],55.9%
same,inhibition in vivo at 1 mg/kg,[1]; [4],57.5%
same,inhibition in vivo at 4 mg/kg,"[1]; Mesocricetus auratus, po, 168 h, Table 4, 4 mg/kg, read-out: Reducing TC %",67.9%
same,LDL-C after administration,[1]; [9],1.52 ± 0.31 mmol/L
same,TC after administration,[1]; [9],6.46 ± 0.58 mmol/L
same,LDL-C after administration,"[1]; Table 1, 2 mg/kg intragastric",0.71 ± 0.49 mmol/L
same,TC after administration,"[1]; Table 1, 2 mg/kg intragastric",4.9 ± 0.62 mmol/L
same,LDL-C after administration,"[1]; Table 1, 10 mg/kg intragastric",0.42 ± 0.2 mmol/L
same,TC after administration,"[1]; Table 1, 10 mg/kg intragastric",4.3 ± 0.85 mmol/L
same,LDL-C before administration,[1]; [10],2.26 ± 0.65 mmol/L
same,LDL-C before administration,[1]; [7],2.57 ± 0.47 mmol/L
same,LDL-C before administration,[1]; [11],2.48 ± 0.67 mmol/L
same,LDL after administration,"[1]; Table 3, 1 mg/kg intragastric",1.19 ± 0.16 mmol/L
same,TC after administration,"[1]; Table 3, 1 mg/kg intragastric",5.79 ± 0.99 mmol/L
same,LDL after administration,"[1]; Table 3, 4 mg/kg intragastric",0.99 ± 0.28 mmol/L
same,TC after administration,"[1]; Table 3, 4 mg/kg intragastric",4.37 ± 0.59 mmol/L
same,Reducing LDL %,"[1]; Table 4, 1 mg/kg",35.7%
same,Reducing LDL %,"[1]; Table 4, 4 mg/kg",46.2%
same,effect compared with positive control Ezetimibe at the same dose (in words),"[1]; golden hamster hypercholesterolemic model, same dose",the same as that of the positive control
same,reduction of plasma TC and LDL-C levels (in words),[1]; [12],can significantly reduce the plasma TC and LDL-C levels
same,effect of lowering cholesterol (screening result in words),[1],have the effect of lowering cholesterol
same,efficacy compared with the positive control (in words),[1],more similar to the positive control
